Data taken from patent US12564600B2, “System for enhancing therapeutic compliance of the anti-cancer compound E7766” (Eisai R&D Management Co., Ltd., priority 2019, dated 2026).

Columns and labels:
[1] = tested on: OATP1B1/1B3; test: Pharmacokinetics in humanized OATP1B1/1B3 mice with or without rifampin co-dose; type: in vivo; conditions: 0.5 mg/kg IV, rifampin 30 mg/kg
Protocol: Age-matched Oatp1a/1b cluster-knockout, OATP1B1- or OATP1B3-knockin mice humanized on the Oatp1a/1b-knockout background, and wild-type FVB male mice were purchased from Taconic Biosciences (Hudson, N.Y., USA). Mice were between 8 and 10 weeks of age (22-34 g) at the time of study. Compound 1 was administered at a dose of 0.5 mg/kg coadministered with either vehicle or rifampin (30 mg/kg). Blood and liver samples were collected at 0.083, 0.25, 0.5, 1, 1.5, 3, 6 hours. Plasma was isolated from blood samples by centrifugation. All samples were stored at −80° C. until bioanalysis.
Compound 1 was dosed via intravenous administration to WT, humanized, and KO mice. Blood, urine, and feces were collected from the animals over 6 hours. Blood spots were collected and expelled FTA™ DMPK-B DBS Card (GE Healthcare, Life Sciences, Whatman™) within the appropriate sample circle. Pharmacokinetics of Compound 1 in WT animals was also assessed after co-administration with rifampin. Liver samples were also collected from WT animals and frozen until analysis. All samples were analyzed using LC-MS/MS and the pharmacokinetics parameters of Compound 1 were determined with Phoenix WinNonlin using non-compartmental analysis.
FIG. 2A through 2C show an in vivo PK profile and elimination of Compound 1 with and without a co-dose of the Oatp/OATP inhibitor Rifampin in different mouse models.

[2] = tested on: OATP1B1/1B3; test: Simcyp PBPK modeling of OATP1Bs-mediated drug-drug interaction; parameters: species or system human; conditions: Simcyp input parameter
Protocol: PBPK modeling was conducted using the Simcyp™ in silico bottom-up PBPK modeling.
Simcyp™ software Version 17.0.0 was used. Simcyp™ parameters are shown below in Table 3.

increase in plasma concentration/exposure in the presence of rifampin [1]: 4.5 fold
CL R [2]: 2.000 L/h
SMILES: O=[P@]1(S)OC[C@H]2O[C@@H]3[C@H](F)[C@@H]2O[P@](=O)(S)OC[C@H]2O[C@H]([C@H](F)[C@@H]2O1)n1cnc2c(ncnc21)NC/C=C/CNc1ncnc2c1ncn23 [Compound 1]
